According to patent US20140041062A1, “GENETICALLY ENGINEERED MOUSE MODEL FOR AUTISM SPECTRUM DISORDER HAVING DELETION OF SHANK2 GENE AND USE THEREOF” (Industry-Academic Cooperation Foundation, Yonsei University, priority 2012, published 2014):
Entries after “also recorded” stand apart in the source; their conditions may differ.

Tests used:
NMDAR signaling = assay: Immunoblot analysis of NMDAR signaling in Shank2−/− whole brains and synaptosomes after CDPPB treatment; format: in vivo, mouse; conditions: CDPPB i.p. 40 min before brain sample preparation
Description: For whole brain homogenates, mouse brains (3-4 wks) were briefly homogenized in 3 volumes of ice-cold homogenization buffer (0.32 M sucrose, 10 mM HEPES pH7.4, 2 mM EDTA, protease inhibitors, phosphatase inhibitors). Protein concentrations were measured by the Bradford assay. The relative amount of […]α-tubulin was used as a loading control. Synaptosomal fractions were prepared (Blackstone, C. D. et al., J Neurochem 58, 1118-26 (1992)).
(§1) CDPPB (Ascent scientific) was dissolved in DMSO and polyethylene glycol 400 (DMSO:PEG 400=1:9) to a final concentration of 6 g/l. Wild-type and Shank2^−/− mice received intraperitoneal injection of CDPPB (10 or 3 mg/kg), or the same volume of DSMO-PEG400 mixture, 30 min before three-chamber or other behavioral assays and 40 min before brain sample preparation for immunoblot analyses. D-cycloserine (Ascent Scientific) was dissolved in saline to final concentration of 12 g/l. Wild-type and Shank2^−/− mice received intraperitoneal injection of D-cycloserine (20 mg/kg), or the same volume of saline, 30 min before three-chamber assays.
Shank2 deletion may also affect NMDAR-associated signaling that it critically regulates various synaptic events including LTP and LTD (Zhu, J. J. et al. Cell 110, 443-55 (2002); Shepherd, J. D. & Huganir, R. L. Annu Rev Cell Dev Biol 23, 613-43 (2007)). […]

Shank2−/− mice [1] = assay: Three-chamber social interaction assay; format: in vivo, mouse
Description: The three-chamber social interaction assay consisted of three phases. In the first phase, a wild-type or Shank2^−/− mouse was placed in the three-chambered apparatus with two small containers in the left or right (not center) chamber, and was allowed to explore the environment freely for 10 min for habituation. After 10 min, the wild-type or Shank2^−/− mouse was gently guided to the center chamber, and the two entrances to the center chamber were blocked while an inaminate object (Object) and a stranger mouse (Stranger 1) were placed in the two containers. Then, the two entrances were opened to allow the mouse in the center to explore the new environment freely for 10 min. In the third phase, the test mouse was gently guided to the center chamber again, with the blockade of the entrances. The Object was replaced with Stranger 2, followed by exploration of the Stranger 1 or 2 by the test mouse for 10 min. Exploration was defined as each instance in which wild-type or Shank2^−/− mouse tries to sniff Object/Stranger, or orients its nose towards and come close to Object/Stranger. Time spent in each chamber was measured by Ethovision 3.1 program (Noldus). Individual movement tracks were analyzed by Ethovision and modified by ImageJ to generate heat maps. In addition to time spent in chamber or in exploration, the present inventors used the preference index, which represents a difference in percent exploration time over the targets (Wang, X. et al. Hum Mol Genet 20, 3093-108 (2011)).
as §1

LTP and LTD = conditions: cited from earlier work
Shank2−/− mice [2] = assay: Pup retrieval assay; format: in vivo, mouse; conditions: CDPPB i.p.
Description: Virgin female mice were isolated for four days before pup retrieval assays. Three normal pups (1-d old; C57BL/6N) were placed at three different corners of a home cage of a test female mouse (wild-type or Shank2^−/−), and the female mouse was allowed to retrieve the pups for 10 min. Efficiency of pup retrieval was measured by the time taken to retrieve the first, second, and third pups.
as §1

Shank3 knockdown = conditions: caused by Shank3 knockdown; cited from earlier work
Shank2−/− mice [3] = assay: Anxiety-like behavior (elevated plus-maze, light-dark test); format: in vivo, mouse; conditions: CDPPB i.p.
Description: The elevated plus-maze consisted of two open arms, two closed arms, and a center area, elevated to a height of 50 cm above the floor. Mice were placed in the center area and allowed to explore the space for 8 min.
The apparatus for light-dark test consisted of light (˜600 lx) and dark (˜5 lx) chambers adhered to each other. An entrance enabled mice to freely move across the light and dark chambers. The size of light chamber was 20×30×20 cm, and that of dark chamber was 20×13×20 cm. Mice were introduced to the center of the light chamber with their heads pointing towards the opposite side of the dark chamber, and allowed to explore the apparatus freely for 10 min. The latency to enter the dark chamber, the time spent in dark and light chambers, and the number of transitions were measured. Transition was defined as the translocation of all four feet of a mouse from one to another chamber.
as §1, with “Wild-type and Shank2^−/− mice received intraperitoneal injection of D-cycloserine (20 mg/kg), or the same volume of saline, 30 min before three-chamber assays.” left out

NMDAR = assay: NMDA/AMPA ratio at hippocampal SC-CA1 synapses of Shank2−/− slices; format: cell-based, mouse; conditions: for NMDA/AMPA ratio: Shank2−/− SC-CA1 synapses / slices; for NMDAR function: Shank2−/− mice, figure legend
Source text: Thus, the present inventors measured the NMDA/AMPA ratio at Shank2^−/− SC-CA1 synapses. Indeed, the NMDA/AMPA ratio was reduced relative to wild-type synapses (FIG. 2e).
Reduced NMDAR function and associated signaling may contribute to autism spectrum disorder (ASD)-like behaviors in Shank2^−/− mice.
(§2) Consistent with previous findings, CDPPB also normalized the NMDA/AMPA ratio in Shank2^−/− slices (FIG. 4a). […] The smaller extents of signaling deficits in older mice (8 weeks) relative to younger mice (3-4 weeks) may reflect age-dependent reductions in NMDAR-mediated currents, and/or compensatory changes in NMDAR signaling.

SC-CA1 synapses = assay: Synaptic plasticity (LTP, LTD) and basal transmission at SC-CA1 synapses of Shank2−/− mice; format: cell-based, mouse
Description: Next, the present inventors measured synaptic transmission at hippocampal Schaffer collaterals-CA1 pyramidal (SC-CA1) synapses. Basal excitatory transmission such as input-output and paired-pulse ratio was unchanged in Shank2^−/− mice (FIGS. 2a and 2b). In addition, spontaneous transmission and membrane excitability were normal in mutant animals. When synaptic plasticity was tested, long-term potentiation (LTP) induced by high frequency stimulation or theta-burst stimulation were severely impaired in Shank2^−/− mice (FIG. 2c). Long-term depression (LTD) induced by low-frequency stimulation was completely abolished also in Shank2^−/− mice (FIG. 2d). Because LTD induced by low-frequency stimulation activates both NMDA and metabotropic glutamate receptors (NMDARs and mGluRs), the present inventors isolated mGluR-LTD by bath-applying DHPG, an agonist of mGluR5, but found no difference between genotypes.
as §2

Shank2−/− mice [4] = assay: Open field assay (hyperactivity); format: in vivo, mouse; conditions: CDPPB i.p.
Description: The size of the open field box was 40×40×40 cm, and the center zone line was 10 cm apart from the edge. Mice were placed in the center of chamber in the beginning of assay, and mouse movements were recorded with a video camera for 60 min, and analyzed by Ethovision 3.1 program (Noldus).
as §1

Shank2−/− mice [5] = assay: Repetitive behaviors (jumping) in home cage; format: in vivo, mouse; conditions: CDPPB i.p.
Description: Mice in their home cages with fresh bedding were used to measure times spent in repetitive behaviors including jumping, upright scrabbling, grooming, and digging during 10 min. Jumping was defined as the behavior of a mouse where it rears on it hind legs at the corner of the cage, or along the side walls, and jumps so that the two hind legs are simultaneously off the ground. Upright scrabbling was defined as the behavior of a mouse where it rears on it hind legs at the corner of the cage, or along the side walls, and tries to climb up against the wall with the two hind legs alternatively or coordinately touching the ground. Grooming behavior was defined as stroking or scratching of face, head, or body with the two forelimbs, or licking body parts. Digging behavior was defined as the behavior of a mouse where it coordinately uses two fore legs or hind legs to dig out or displace bedding materials.
as §1, with “Wild-type and Shank2^−/− mice received intraperitoneal injection of D-cycloserine (20 mg/kg), or the same volume of saline, 30 min before three-chamber assays.” left out

[6] = system: neuroligin-1-deficient mice; conditions: neuroligin-1-deficient mice with reduced NMDA/AMPA ratio; cited from earlier work
autism = conditions: cited from earlier work

Molecule: N#Cc1cccc(C(=O)Nc2cc(-c3ccccc3)nn2-c2ccccc2)c1 [CDPPB]
- NMDAR signaling in synaptosomes (NMDAR signaling; Shank2−/− synaptosomes): fully normalized
- NMDAR signaling in whole brains (NMDAR signaling; Shank2−/− whole brains): fully normalized
- social interaction (Shank2−/− mice [1]; CDPPB 10 mg/kg i.p. 30 min before assay): substantially improves; also recorded: substantial recoveries
- social novelty recognition (Shank2−/− mice [1]; CDPPB i.p.): no effect
- social interaction, lower-dose (Shank2−/− mice [1]; lower-dose CDPPB (3 mg/kg i.p.)): did not rescue
- LTP and LTD (LTP and LTD): enhance
- spatial learning (LTP and LTD): enhance
- impaired pup retrieval (Shank2−/− mice [2]): did not rescue
- reduced ERK phosphorylation (Shank3 knockdown): restores
- reduced excitatory transmission (Shank3 knockdown): restores
- anxiety-like behaviors (Shank2−/− mice [3]): did not rescue
- NMDA/AMPA ratio (NMDAR): normalized
- NMDAR function (NMDAR): normalizes
- basal synaptic transmission (SC-CA1 synapses): without affecting
- impaired LTD at SC-CA1 synapses (SC-CA1 synapses): restored
- impaired LTP at SC-CA1 synapses (SC-CA1 synapses): restored
- hyperactivity (Shank2−/− mice [4]): did not rescue
- repeated jumping (Shank2−/− mice [5]): did not rescue

Molecule: N[C@@H]1CONC1=O [D-cycloserine]
- social interaction (Shank2−/− mice [1]; D-cycloserine 20 mg/kg i.p. 30 min before assay): improved
- repetitive grooming [6]: rescue
- NMDA/AMPA ratio (NMDAR): fully recovered
- NMDAR function (NMDAR): normalizes

Molecule: O=C(Nc1cc(-c2ccccc2)nn1-c1ccccc1)c1ccc([N+](=O)[O-])cc1 [VU-29]
- LTP and LTD (LTP and LTD): enhance
- spatial learning (LTP and LTD): enhance

Molecule: GLYX-13
- therapeutic effect on autism (autism): showed a therapeutic effect
